From US20090062388A1, “Use of acetyl L-carnitine for the preparation of a medication for the preventive therapy for pain” (Sigma-Tau Industrie Farmaceutiche Riunite S.p.A., priority 2001, published 2009)
Read-outs that look alike come from different tables or passages of the source.

Tested on: mice
Format: in vivo
Conditions: for Hot plate Licking latency: antagonist pre-treatment + PS (no acetyl L-carnitine); for antagonism of the analgesia induced by acetyl L-carnitine: acetyl L-carnitine 100 mg/kg BID SC for 7 days, hot plate
Procedure: The analgesia induced by the acetyl L-carnitine (100 mg/kg BID, SC for 7 days) was determined in presence of some antagonists of some neurotransmission systems deeply involved in the regulation of pain threshold, and in particular the naloxone (opioid antagonist), the CGP-35348 (GABAB antagonist) and the alpha-methyl-p-tyrosine (inhibitor of the synthesis of cathecolamines).
In agreement with the standard procedures known by the person skilled in the art, the doses used for any antagonist were the minimum required to prevent the analgesia induced by morphine (7 mg/kg SC) (1, 100 e 200 mg/kg IP), baclofen (4 mg/kg SC) and amphetamine (1 mg/kg SC) (non-reported data) respectively.

[1] = dose (naloxone 1, CGP 35348 100, alpha-M-p-T 200, atropine 5 mg/kg, HC-3 1 μg, pirenzepine 0.1 μg, S-(−)-ET-126 0.1 μg ICV), before treatment

Structure (SMILES)	Hot plate Licking latency (after treatment 15 min) [s]	Hot plate Licking latency (after treatment 30 min) [s]	Hot plate Licking latency (after treatment 45 min) [s]	Hot plate Licking latency [1] [s]	antagonism of the analgesia induced by acetyl L-carnitine
CC(N)(Cc1ccc(O)cc1)C(=O)O (stereo not drawn) [Alpha-M-p-T, alpha-methyl-p-tyrosine, reference compound]	15.4 ± 1.6	16.1 ± 1.8	13.6 ± 1.5	14.6 ± 0.9	–
CN1[C@@H]2CC[C@H]1C[C@@H](OC(=O)C(CO)c1ccccc1)C2 (some centres unmarked) [Atropine, atropine, reference compound]	13.7 ± 1.1	15.4 ± 1.2	13.1 ± 1.9	14.1 ± 0.9	capable to antagonize the increase of the pain threshold
CCOC(OCC)P(=O)(O)CCCN [CGP 35348, reference compound]	12.4 ± 1.0	12.6 ± 1.3	12.2 ± 1.6	14.4 ± 0.8	–
C[N+]1(C)CCOC(O)(c2ccc(-c3ccc(C4(O)C[N+](C)(C)CCO4)cc3)cc2)C1.[Br-].[Br-] (centres unmarked) [HC-3, hemicholinium-3, reference compound]	13.7 ± 1.1	15.4 ± 1.2	13.1 ± 1.9	14.1 ± 0.9	capable to antagonize the increase of the pain threshold
C=CCN1CC[C@]23c4c5ccc(O)c4O[C@H]2C(=O)CC[C@@]3(O)[C@H]1C5 [Naloxone, naloxone, reference compound]	13.3 ± 1.3	13.1 ± 1.1	14.2 ± 1.3	14.0 ± 0.7	–
CN1CCN(CC(=O)N2c3ccccc3C(=O)Nc3cccnc32)CC1 [Pirenzepine, pirenzepine, reference compound]	13.9 ± 1.5	14.5 ± 1.8	15.5 ± 1.5	13.6 ± 0.8	capable to antagonize the increase of the pain threshold
CN1CCC(OC(=O)[C@H](CO)c2ccccc2)CC1 [S-(−)-ET-126, reference compound]	15.3 ± 1.8	16.2 ± 1.9	16.1 ± 2.0	15.0 ± 1.0	capable to antagonize the increase of the pain threshold
